According to PMC10534582, “A Pharmacokinetic Study of Sixteen Major Bioactive Components of Jinshui-Huanxian Granules in Pulmonary Fibrosis Model and Control Rats Using Orbitrap Fusion Mass Spectrometry” (Molecules, 2023):
Like-named read-outs stand apart in the source and are kept apart here.

Assay: Pharmacokinetics of JHG components in control rats after intragastric administration of JHGs (plasma, Orbitrap Fusion MS)
Format: in vivo, Sprague Dawley (SD) rats
Details: for AUC(0-inf) / AUC(0-t) / half-life / MRT last / MRT inf / Tmax / Cmax: male, rat, plasma, po; for MRT last: read-out: MRT(0-t); for MRT inf: read-out: MRT(0-∞); for Cmax: intragastric JHGs; for pharmacokinetic process (Cmax and AUCs versus dosage): low, medium, high doses of JHGs
Description: Healthy male Sprague Dawley (SD) rats of SPF grade (240 ± 20 g) were purchased from Sipeifu (Beijing, China) Biotechnology Co., Ltd. (Beijing, China), Certificate of Conformity No.: SCYK (Beijing, China) 2019-0015, Animal Quality Certificate No.: 110324220102348616. They were housed in the Animal Center of Henan University of Traditional Chinese Medicine, which passed the ethical audit, ethics number: DWLL202208003, breeding Co. 24 °C, relative humidity 50 ± 2%. The animals fasted for 12 h before the experiment and drank water freely. All feeding and experimental studies on experimental animals were in accordance with the regulations on the Management of Experimental Animals in Henan Province.
Twenty-four healthy male SD rats or PF model rats, weighing 240 ± 20 g, fasted for 12 h before the experiment and drank water freely. Both kinds of rats were randomly divided into four groups. Blank group: equal dose of water by intragastric, low dose; administration group: rats were given the equivalent human dose of JHGs by intragastric, i.e., 10.8 g of raw drug/kg/d (5.70 g/kg/d); medium-dose administration group: 2 times the human equivalent dose of JHGs by intragastric, i.e., 21.6 g of raw drug/kg/d (11.41 g/kg/d); high-dose administration group: 4 times the human equivalent dose of JHG, i.e., 43.2 g of raw drug/kg/d (22.81 g/kg/d). Blood was collected from the tail vein before and 0.083, 0.25, 0.5, 0.75, 1, 1.5, 2, 3, 4, 6, 8, 12, 18, and 24 h after dosing, respectively. A total of 0.5 mL was placed in a heparin sodium centrifuge tube. Whole blood was left for 30 min and then centrifuged in a low-temperature freezing centrifuge (4 °C, 3000 r/min) for 15 min. The upper layer of plasma was collected and stored in a refrigerator at −80 °C.
We added 50 μL of internal standard solution and 800 μL of methanol, shook for 15 min, then centrifuged at 12,000 r/min for 10 min, took the supernatant, dried in a centrifuge concentrator, added 50 μL of the initial mobile phase to the residue, dissolved, centrifuged, then separated the upper layer of the solution used as the test solution. A total of 5 μL test solution was taken into the sample for analysis. For each compound with a certain dosage, the same procedure is repeated six times in parallel. The concentration in plasma was calculated by the internal standard method.
Accucore C18 (100 mm × 2.1 mm, 2.6 μm) column at 25 °C, the mobile phase was methanol (A)-0.1% formic acid aqueous solution (B). The gradient elution program was 0–4 min (65% B-40% B), 4–5 min (40% B-40% B), 5–6 min (40% B-28% B), and 6–7 min (28% B-19% B), 7–7.5 min (19% B-10% B), 7.5–11 min (10% B-0% B), the flow rate was 0.2 mL/min, and the injection volume was 5 μL.
The ion source was an electrospray ionization source (ESI). Nitrogen acted as a carrier gas. The sheath gas pressure was 35 Arb. The auxiliary gas pressure was 7 Arb. The spray voltage was 3.50 kv(+), 2.50 kv(-). The ion transport tube temperature was regulated at 300 °C. Gasification temperature was 275 °C. The resolution was 50,000. The scanning mode was set as SIM mode. The optimized parameters obtained are in Table 5.
Under the established Orbitrap Fusion MS method, the pharmacokinetics of JHG in rats were studied to investigate the dynamic changes of the active components in rats. The pharmacokinetic parameters of each component in each dosing group were calculated by […] model analysis using Kinetica 5.1 (Innaphase, Waltham, MA, USA) pharmacokinetic analysis software. The pharmacotemporal curves were plotted by the plotting software. SPSS 19.0 (IBM, Armonk, NY, USA) was used to analyze all the parameters. Independent sample tests were performed after natural logarithmic transformation for AUC0–t, Cmax. The nonparametric Mann–Whitney test was applied for Tmax, t½, and MRT0–t. p < 0.05 was considered statistically significant.

[1] = Sprague Dawley, 5.7 g/kg/day, JHGs low dose 5.70 g/kg/d
[2] = Sprague Dawley, 5.7 g/kg/day, JHGs low dose 5.70 g/kg/d, read-out: Tmax
[3] = Sprague Dawley, 5.7 g/kg/day, low dose 5.70 g/kg/d, n=6 (1st of 3 stacked values)
[4] = Sprague Dawley, 11.41 g/kg/day, JHGs medium dose 11.41 g/kg/d
[5] = Sprague Dawley, 11.41 g/kg/day, JHGs medium dose 11.41 g/kg/d, read-out: Tmax
[6] = Sprague Dawley, 11.41 g/kg/day, medium dose 11.41 g/kg/d, n=6 (2nd of 3 stacked values)
[7] = Sprague Dawley, 22.81 g/kg/day, JHGs high dose 22.81 g/kg/d
[8] = Sprague Dawley, 22.81 g/kg/day, JHGs high dose 22.81 g/kg/d, read-out: Tmax
[9] = Sprague Dawley, 22.81 g/kg/day, high dose 22.81 g/kg/d, n=6 (3rd of 3 stacked values)
[10] = Sprague-Dawley, after administration of JHGs, read-out: Tmax of all dosages

Clearances (JHGs high dose 22.81 g/kg/d) | Vss (JHGs high dose 22.81 g/kg/d) | Clearances (JHGs low dose 5.70 g/kg/d) | Vss (JHGs low dose 5.70 g/kg/d) | Clearances (JHGs medium dose 11.41 g/kg/d) | Vss (JHGs medium dose 11.41 g/kg/d) | AUC(0-inf) [1] | AUC(0-t) [1] | half-life [1] | MRT last [1] | MRT inf [1] | Tmax [2] | Cmax [3] | AUC(0-inf) [4] | AUC(0-t) [4] | half-life [4] | MRT last [4] | MRT inf [4] | Tmax [5] | Cmax [6] | SMILES | further results
7.33 ± 1.2 mL/min/kg | 6.6 ± 0.86 L | 3.3 ± 0.67 mL/min/kg | 3.94 ± 0.41 L | 6 ± 1.3 mL/min/kg | 5.33 ± 0.41 L | 29.1 ± 6.32 ng·h/mL | 20.2 ± 1.99 ng·h/mL | 15.4 ± 4.12 h | 8.84 ± 0.05 h | 20.1 ± 4.89 h | 1.83 ± 0.2 h | 1.99 ± 0.17 ng/mL | 28.9 ± 6.86 ng·h/mL | 22.2 ± 2.68 ng·h/mL | 11 ± 5.32 h | 7.89 ± 0.21 h | 15.3 ± 4.77 h | 1.5 h | 3.22 ± 0.44 ng/mL | O=c1cc(-c2ccc(O)cc2)oc2cc(OC3OC(CO)C(O)C(O)C3O)cc(O)c12 (centres unmarked) [Apigenin-7-glucoside] | AUC(0-inf) [7]: 46.5 ± 7.55 ng·h/mL; AUC(0-t) [7]: 36.5 ± 5.3 ng·h/mL; half-life [7]: 9.62 ± 0.54 h; MRT last [7]: 8.8 ± 0.07 h; MRT inf [7]: 15 ± 0.61 h; Tmax [8]: 1.67 ± 0.29 h; Cmax [9]: 3.88 ± 0.42 ng/mL; Tmax [10]: ≤ 2 h
2.5 ± 0.17 mL/min/kg | 1.35 ± 0.09 L | 1 ± 0.17 mL/min/kg | 0.6 ± 0.08 L | 1.3 ± 0.17 mL/min/kg | 0.83 ± 0.06 L | 312 ± 26 ng·h/mL | 290 ± 24.4 ng·h/mL | 5.75 ± 0.55 h | 7.83 ± 0.02 h | 9.56 ± 0.13 h | 6 h | 44 ± 5.61 ng/mL | 433 ± 43.5 ng·h/mL | 402 ± 39.2 ng·h/mL | 5.75 ± 0.11 h | 8.56 ± 0.09 h | 10.3 ± 0.15 h | 6 h | 57.7 ± 5.09 ng/mL | O=c1cc(-c2ccc(O)c(O)c2)oc2cc(O[C@@H]3O[C@H](CO)[C@@H](O)[C@H](O)[C@H]3O)cc(O)c12 [Cynaroside] | AUCs compared among the analytes: highest; correlation between CL, AUCs (AUC(0–t), AUC (0–∞)), t½, and dose: there was a correlation; pharmacokinetic process (Cmax and AUCs versus dosage): linear pharmacokinetic process; AUC(0-inf) [7]: 472 ± 31.3 ng·h/mL; AUC(0-t) [7]: 438 ± 27.6 ng·h/mL; half-life [7]: 5.1 ± 0.13 h; MRT last [7]: 7.51 ± 0.01 h; MRT inf [7]: 9.2 ± 0.11 h; Tmax [8]: 6 h; Cmax [9]: 79.5 ± 3.5 ng/mL; Tmax compared among the analytes (no matter the dosages): longest
805.7 ± 251.3 mL/min/kg | 882.05 ± 234.11 L | 271.5 ± 60.7 mL/min/kg | 287.56 ± 59.62 L | 466.5 ± 143 mL/min/kg | 642.56 ± 174.23 L | 21.1 ± 6.95 ng·h/mL | 15.6 ± 4.99 ng·h/mL | 13.5 ± 1.64 h | 8.63 ± 0.2 h | 17.8 ± 2.23 h | 0.75 h | 2.51 ± 0.77 ng/mL | 22.3 ± 6.8 ng·h/mL | 14.4 ± 4.14 ng·h/mL | 18.7 ± 2.51 h | 8.19 ± 0.19 h | 23.3 ± 3.85 h | 0.75 h | 3.02 ± 0.58 ng/mL | COc1ccc(-c2cc(=O)c3c(OC)c(OC)c(OC)c(OC)c3o2)cc1OC [Nobiletin] | t1/2 (JHGs high dose 22.81 g/kg/d): 16.19 ± 7.02 h; AUC(0-inf) [7]: 25.9 ± 9.57 ng·h/mL; AUC(0-t) [7]: 17.9 ± 4.56 ng·h/mL; MRT last [7]: 7.37 ± 0.43 h; MRT inf [7]: 19.5 ± 7.12 h; Tmax [8]: 0.75 h; Cmax [9]: 4.46 ± 1.06 ng/mL; Tmax [10]: ≤ 2 h
2357.3 ± 393.5 mL/min/kg | 1831.33 ± 158.35 L | 1602 ± 417.2 mL/min/kg | 1528.44 ± 295.01 L | 2679.2 ± 604.3 mL/min/kg | 2003.58 ± 215.42 L | 55.6 ± 13 ng·h/mL | 42.4 ± 8.94 ng·h/mL | 13.2 ± 1.77 h | 7.84 ± 0.03 h | 16.1 ± 1.86 h | 0.75 h | 6.6 ± 1.48 ng/mL | 59.2 ± 14.8 ng·h/mL | 48.6 ± 10.1 ng·h/mL | 11.1 ± 1.41 h | 6.91 ± 0.23 h | 12.7 ± 1.67 h | 0.75 h | 11.7 ± 2.03 ng/mL | COc1ccc(C(C)=O)c(O)c1 [Paeonol] | AUC(0-inf) [7]: 131 ± 20.9 ng·h/mL; AUC(0-t) [7]: 106 ± 6.95 ng·h/mL; half-life [7]: 9.02 ± 3.68 h; MRT last [7]: 7.77 ± 0.37 h; MRT inf [7]: 13.3 ± 3.52 h; Tmax [8]: 2 h; Cmax [9]: 15.7 ± 1.66 ng/mL; Tmax [10]: ≤ 2 h

SMILES | Clearances (JHGs high dose 22.81 g/kg/d) | Vss (JHGs high dose 22.81 g/kg/d) | Clearances (JHGs low dose 5.70 g/kg/d) | Vss (JHGs low dose 5.70 g/kg/d) | Clearances (JHGs medium dose 11.41 g/kg/d) | Vss (JHGs medium dose 11.41 g/kg/d) | AUC(0-inf) [1] | AUC(0-t) [1] | half-life [1] | MRT last [1] | MRT inf [1] | Tmax [2] | Cmax [3] | AUC(0-inf) [4] | AUC(0-t) [4] | half-life [4] | MRT last [4] | MRT inf [4] | Tmax [5] | Cmax [6] | further results
CC1=C2CC3C(CC(=O)C4CC(O)CCC43C)C2CCC12OC1CC(C)CNC1C2C (centres unmarked) [Peimisine] | 3.3 ± 0.5 mL/min/kg | 3.96 ± 0.82 L | 2.5 ± 0.67 mL/min/kg | 3.26 ± 0.57 L | 3.17 ± 0.83 mL/min/kg | 3.98 ± 0.82 L | 19.5 ± 5.73 ng·h/mL | 12.4 ± 2.56 ng·h/mL | 16.5 ± 2.09 h | 9.16 ± 0.22 h | 22.8 ± 3.24 h | 4 h | 1.49 ± 0.16 ng/mL | 26.9 ± 7.93 ng·h/mL | 17.8 ± 4.48 ng·h/mL | 15.2 ± 1.25 h | 9.14 ± 0.03 h | 21.3 ± 1.78 h | 4 h | 2.08 ± 0.54 ng/mL | pharmacokinetic process (Cmax and AUCs versus dosage): linear pharmacokinetic process; AUC(0-inf) [7]: 48.9 ± 9.74 ng·h/mL; AUC(0-t) [7]: 34.9 ± 8.14 ng·h/mL; half-life [7]: 11.4 ± 0.71 h; MRT last [7]: 11.34 ± 0.11 h; MRT inf [7]: 19.8 ± 0.92 h; Tmax [8]: 8 h; Cmax [9]: 2.35 ± 0.53 ng/mL
